Tested on: Mus musculus
Experiment: Antitetrabenazine activity in ip dosed CD1 mouse assessed as inhibition of tetrabenazine-induced ptosis challenged with tetrabenazine after 30 mins later and after another 30 mins of drug treatment
Format: functional
Details: 0.5 h

In the case of `NN1CCC2(CC1)OC(c1ccccc1)c1ccccc12` (stereo unspecified), the ED50 is reported as 6.8 mg/kg.
`O=NN1CCC2(CC1)OC(c1ccccc1)c1ccccc12` (stereo unspecified) showed an ED50 greater than 25 mg/kg.
For `CC(C)NN1CCC2(CC1)OC(c1ccccc1)c1ccccc12` (stereo unspecified), the ED50 was greater than 25 mg/kg.
In the case of `ON1CCC2(CC1)OC(c1ccccc1)c1ccccc12` (stereo unspecified), the ED50 is reported as 1.4 mg/kg.
Molecule `O=C(ON1CCC2(CC1)OC(c1ccccc1)c1ccccc12)c1ccccc1` (stereo unspecified) has an ED50 greater than 25 mg/kg.
With `COc1ccc(C2OC3(CCN(O)CC3)c3ccccc32)cc1` (stereo unspecified) the ED50 was 3.5 mg/kg.
With `COc1ccc2c(c1)C1(CCN(O)CC1)OC2c1ccccc1` (stereo unspecified) the ED50 was 4.7 mg/kg.
`ON1CCC2(CC1)OC(c1ccc(F)cc1)c1ccccc12` (stereo unspecified) showed an ED50 of 4 mg/kg.
`c1ccc(C2OC3(CCNCC3)c3ccccc32)cc1` (stereo unspecified) showed an ED50 of 0.5 mg/kg.
Work on `CNCCCN1c2ccccc2CCc2ccccc21` [DESIPRAMINE] yielded an ED50 of 0.8 mg/kg.
Molecule `CN(C)CCCN1c2ccccc2CCc2ccccc21` [IMIPRAMINE] has an ED50 of 1.3 mg/kg.

From ChEMBL document CHEMBL3243944, “Synthesis of spiro[isobenzofuran-1(3H),4'-piperidines] as potential central nervous system agents. 2. Compounds containing a heteroatom attached to nitrogen” (1977)
